Source: ChEMBL document CHEMBL1154149, “Antimalarial pharmacodynamics of chalcone derivatives in combination with artemisinin against Plasmodium falciparum in vitro” (Eur J Med Chem, 2009)

How the values were obtained:
Plasmodium falciparum [1] = test: Antiplasmodial activity against chloroquine-sensitive Plasmodium falciparum 3D7 infected in type B+ human erythrocytes assessed as inhibition of ring stage parasite after 18 hrs followed by incubation in drug-free medium for 48 hrs by stage specific inhibition assay relative to control; type: functional
Plasmodium falciparum [2] = test: Antiplasmodial activity against chloroquine-sensitive Plasmodium falciparum 3D7 infected in type B+ human erythrocytes assessed as inhibition of schizont stage parasite after 12 hrs followed by incubation in drug-free medium for 48 hrs by stage specific inhibition assay relative to control; type: functional
Plasmodium falciparum [3] = test: Antiplasmodial activity against chloroquine-sensitive Plasmodium falciparum 3D7 infected in type B+ human erythrocytes assessed as inhibition of trophozoite stage parasite after 18 hrs followed by incubation in drug-free medium for 48 hrs by stage specific inhibition assay relative to control; type: functional
Plasmodium falciparum [4] = test: Antiplasmodial activity against chloroquine-sensitive Plasmodium falciparum 3D7 infected in type B+ human erythrocytes assessed as reduction of hemozoin formation at IC50 after 48 hrs relative to control; type: functional; set-up: scale not given: the % may be the effect or the level left
Plasmodium falciparum [5] = test: Antiplasmodial activity against chloroquine-sensitive Plasmodium falciparum 3D7 infected in type B+ human erythrocytes assessed as inhibition of sorbitol-induced hemolysis at 10 mM after 15 min by spectrophotometry; type: functional; set-up: scale not given: the % may be the effect or the level left
Plasmodium falciparum [6] = test: Antiplasmodial activity against chloroquine-sensitive Plasmodium falciparum 3D7 infected in type B+ human erythrocytes assessed as inhibition of sorbitol-induced hemolysis at 5 nM after 15 min by spectrophotometry; type: functional; set-up: scale not given: the % may be the effect or the level left
Plasmodium falciparum [7] = test: Antiplasmodial activity against chloroquine-sensitive Plasmodium falciparum 3D7 infected in type B+ human erythrocytes assessed as inhibition of parasitemia after 48 hrs by Giemsa staining; type: functional, organism-based; conditions: 3D7, 48 h
Plasmodium falciparum [8] = test: Antiplasmodial activity against chloroquine-sensitive Plasmodium falciparum 3D7 infected in type B+ human erythrocytes assessed as inhibition of sorbitol-induced hemolysis at 10 uM after 15 min by spectrophotometry; type: functional; set-up: scale not given: the % may be the effect or the level left
Plasmodium falciparum [9] = test: Antiplasmodial activity against chloroquine-sensitive Plasmodium falciparum 3D7 infected in type B+ human erythrocytes assessed as inhibition of sorbitol-induced hemolysis at 10 nM after 15 min by spectrophotometry; type: functional; set-up: scale not given: the % may be the effect or the level left

| SMILES | inhibition (INH) (Plasmodium falciparum [1]) [%] | inhibition (INH) (Plasmodium falciparum [2]) [%] | inhibition (INH) (Plasmodium falciparum [3]) [%] | Activity (Plasmodium falciparum [4]) [%] | Activity (Plasmodium falciparum [5]) [%] | also measured |
| --- | --- | --- | --- | --- | --- | --- |
| O=C(/C=C/c1ccc(Cl)cc1)c1ccc(-n2cncn2)cc1 | 48.7 | 40.1 | 65.8 | 47.8 | 36.1 |  |
| O=C(/C=C/c1ccc(Cl)cc1)c1ccc(-n2cccc2)cc1 | 51.4 | 48.9 | 61.5 | 48.8 | 85.9 |  |
| C[C@@H]1CC[C@H]2[C@@H](C)C(=O)O[C@@H]3O[C@@]4(C)CC[C@@H]1[C@]32OO4 [ARTEMISININ] |  |  |  | 48.3 |  | Activity (Plasmodium falciparum [6]): 90.9%; IC50 (Plasmodium falciparum [7]): 4 nM |
| O=C(/C=C/c1ccc(Cl)cc1)c1ccc(-n2nnc3ccccc32)cc1 | 47.9 | 41 | 70.9 | 47.7 | 90 |  |
| NS(=O)(=O)c1cc(C(=O)O)c(NCc2ccco2)cc1Cl [FUROSEMIDE] |  |  |  |  |  | Activity (Plasmodium falciparum [8]): 56.3% |
| CCc1nc(N)nc(N)c1-c1ccc(Cl)cc1 [PYRIMETHAMINE] |  |  |  | 56.3 |  | Activity (Plasmodium falciparum [9]): 92.2% |
| C=CC(C)(C)c1cc(/C=C/C(=O)c2ccc(O)cc2)c(OC)cc1O [LICOAGROCHACONE A] |  |  |  |  |  | IC50 (Plasmodium falciparum [7]): 4.2 nM |
